Reference: US12502372B2, “(9beta-H)-pimarane mother nucleus diterpenoid compound with anti-colon cancer activity and derivative thereof, and preparation method thereof” (NANJING UNIVERSITY OF CHINESE MEDICINE, priority 2023, dated 2025)

How the values were obtained:
HT-29 colon cancer cells = assay: MTT proliferation inhibition (cell viability) on colon cancer cell line HT-29; assay type: cell-based; conditions: for IC50: Homo sapiens, HT-29 colon cancer cell line, 24 hours with drug, MTT method, OD 570 nm, read-out: IC50 ± SD, HT-29
Description: (§1) Colon cancer cell lines HT-29 and SW620 (cell bank of Chinese Academy of Sciences) were cultured in a DMEM culture solution containing 10% fetal bovine serum (Gibco Company of America) at 37° C. under 5% CO2. During subculturing, a dish of tumor cells was taken out first, the culture solution was removed, and 3 mL of PBS was added to wash the cells twice; 1 mL of trypsin was added for digestion, 1 mL of culture solution was added after 2 minutes to stop the digestion, and the mixture was centrifuged at 1000 r/min and room temperature for 5 minutes; and a supernatant was removed, 1 mL of DMEM culture medium containing 10% fetal bovine serum was added, and the mixture was resuspended to obtain a cell suspension.
(§2) Different volumes of DMEM culture media were added to dilute the compounds into different concentrations. Meanwhile, a DMEM culture medium containing 0.1% DMSO was used as a negative control.
(§3) Tumor cells were suspended in a culture medium, inoculated into a 96-well plate (100 μL/well) by a cell density of 6×10^3, and cultured at 37° C. under 5% CO2 for 24 hours. In a logarithmic growth period of the tumor cell lines, different concentrations of compounds were added to culture the cells at 37° C. under 5% CO2 for 24 hours.
(§4) After 24 hours of interaction between the drugs and the tumor cells, 20 μL of MTT solution (5 mg/mL) was added into each well to incubate the cells in a sterile incubator for 3 hours. A supernatant was removed completely, and 150 μL of DMSO was added into each well to react on a shaker for 30 minutes, so as to dissolve bluish violet formazan crystals. An OD value was determined at a wavelength of 570 nm with a microplate reader. IC50 (median inhibitory concentration) values of the compounds were calculated by GraphPad Prism 8 software, and 5-FU was used as a positive control.

[1] = test system: colon cancer cell line SW620; assay: MTT proliferation inhibition (cell viability) on colon cancer cell line SW620; assay type: cell-based; conditions: for IC50: Homo sapiens, SW-620, SW620 colon cancer cell line, 24 hours with drug, MTT method, OD 570 nm, read-out: IC50 ± SD, SW620
Description: as §1, §2, §3, §4

| IC50 (HT-29 colon cancer cells) [µM] | IC50 [1] [µM] | SMILES | inhibiting effect on HT-29 relative to positive drug 5-FU (HT-29 colon cancer cells; HT-29, compared with 5-FU) | anti-proliferation effect on HT-29 (in words) (HT-29 colon cancer cells; HT-29, stated stronger than positive drug 5-FU) | anti-proliferation effect on SW620 (in words) ([1]; SW620, stated stronger than positive drug 5-FU) |
| --- | --- | --- | --- | --- | --- |
| > 20 |  | C[C@@H](C(=O)O)[C@@H]1[C@H]2C[C@H]3c4occc4C(=O)C[C@H]3[C@]1(CCC(=O)O)CO2 [Compound 1, secoicacinlivitholide F] |  |  |  |
| 3.12 ± 1.63 | 9.92 ± 1.68 | COC(=O)CC[C@]12CO[C@H](C[C@H]3c4occc4C(=O)C[C@H]31)[C@H]2[C@@H](C)C(=O)O [Compound 2, secoicacinlivitholide G] | about three times that of the positive drug 5-FU | remarkable anti-proliferation effects | remarkable anti-proliferation effects |
| 9.18 ± 1.61 | 14.2 ± 1.43 | O=c1[nH]cc(F)c(=O)[nH]1 [Compound 5-FU, 5-fluorouracil, reference compound] |  |  |  |
